From patent EP1310511A2, “Oligopeptides for promoting hair growth” (Sumitomo Electric Industries, Ltd., priority 2001, dated 2003)
Where no end group is shown, it is not given here.

Tested on: C57BL/6 mice
Assay: Evaluation of hair growth promoting activity by in vivo method (transition from telogen to anagen on shaved back)
Conditions: 0.2 ml of 0.15mg/ml solution in 50% ethanol/PBS on shaved back, once a day, 5 days in a week, until 38th day
Experimental: C3H and C57BL/6 mice are known to have sustained telogen for about 50 days from the 45th day after the birth to around the 95th day. Their hair cycle is easily judged based on the skin color changes, i.e., from pink in telogen to gray or black in anagen. A test for evaluating whether or not the administration the oligopeptides of the present invention promotes the transition from telogen to anagen was carried out using the mice. Seven weeks old (48 to 50-day old, female) C57BL/6 mice were purchased and hair of the back (about 3×2.5 cm^2) was carefully shaved with electric clippers for animals so as not to injure the skin, and the hair cycle was confirmed to be in telogen from the skin color. The oligopeptide solution prepared above was applied to five mice in each group, once a day and 5 days in a week in the amount of 0.2 ml until 38th day from the start of the test. The application was carried out by using a syringe without needle. […]
Plural persons (two persons) observed the mice twice a week by naked eye for evaluation, and gave a 6-graded score depending on a ratio of hair restoration area based on the hair shaved area. […] Hair growth scores were calculated as follows. […] The sum of the above scores in each group was determined as the hair growth score. […]

Sequence: SIEQSCDQDE [oligopeptide comprising murine pep7 region]
- hair restoration / hair growth promoting activity (hair growth score versus control group): has hair growth promoting activity
